Data: patent US5968526A, “T cell epitopes of the major allergens from Dermatophagoides (house dust mite)” (Immulogic Pharamaceutical Corporation, priority 1995, dated 1999)

Tested on: T cell lines primed in vitro to Der p I
Experiment: secondary proliferation of Der p I-primed T cell lines (Examples V, VII, XI)
Assay type: cell-based, human
Details: for T cell reactivity: overlapping Der p I peptides
Procedure, shortened: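 PBMC were primed with native or recombinant Der p I (10 or 20 μg/ml) for 7 days, then expanded with IL-2 and IL-4. Resting T cells (2×10^4) were cultured 3 days with irradiated autologous EBV-B cells or PBMC and titrated protein or peptides, then pulsed 16 h with 1 μCi ³H-thymidine. S.I. was peak-response CPM over medium-only CPM, with S.I. ≥2.0 scored positive.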

DF I-22.2: VAATESAYLAYRNTSLDLSEQELVD, amino acid residues 40-64 of Der f I
T cell response to selected Der f I peptides (Der p I primed, 30 positive experiments, FIG. 15a): respond significantly

DP I-21.2: Der p I peptide; unique peptide (SINGNAPAEIDLRQMRTVTPIRMQ)
T cell response to selected Der p I peptides (33 positive experiments, FIG. 13): respond significantly
positivity index (P.I.) (mean S.I. × percent responders, 33 patients): at least 150

DP I-3: Der p I peptide (TVTPIRMQGGCGSCWAFSGVAATESAYLA)
T cell reactivity (33 positive experiments): significant regions of T cell reactivity

DP I-1: Der p I peptide, amino acid residues 1-20 (TNACSINGNAPAEIDLRQMR)
percent of positive responses (S.I. of at least 2) (33 patients): 73%
T cell reactivity (33 positive experiments): significant regions of T cell reactivity
